Results on one molecule are retold here after patent US20070270392A1, “Use of a Cyclopentenone Prostaglandin for Delaying the Onset and/or Preventing the Continuation of Labour” (Imperial College Innovations Limited, priority 2003, published 2007).

The experiment has as its system LPS-induced inflammatory responses in placental homogenates. The experiment is described as follows: Mouse model of preterm labour: placental inflammatory responses after intrauterine LPS ± 15d-PGJ2. Format: in vivo, mice. As for the experimental part: Concentrations of IL-1 (in placental homogenates collected from gestation day 16 mice 6 hours after intrauterine injection of 250 μg LPS+vehicle or 250 μg LPS+4 μg 15d-PGJ2. * denotes statistically significant difference (t-test (p<0.05)).
Relative concentrations of phospho-p65 in placental homogenates collected from gestation day 16 mice 6 hours after intrauterine injection of 250 μg LPS+vehicle or 250 μg LPS+4 μg 15d-PGJ2. * denotes statistically significant difference (t-test (p<0.05)).
Surgery was performed on timed pregnant MF1 mice at day 16 of gestation. After deep maternal anaesthesia was attained, a minilaparotomy was performed in the lower abdomen. The uterine horns were exposed through the incision and preterm labour was induced by the intrauterine injection of […] lipopolysaccharide (LPS, Sigma) into the gravid horn. This was immediately followed by injection of 4 μg […] (Cayman), or an equal volume of vehicle (methyl acetate), at the same site. The uterus was then returned to the abdomen and the fascia and skin were closed with continuous vicryl sutures.
Mice were sacrificed 6 hours after injection of LPS±15d-PGJ2. Placentae were washed in phosphate buffered saline (PBS), flash frozen in liquid nitrogen and stored at −80° C. until further processing. Fetuses were washed in PBS, then immediately fixed in 4% paraformaldehyde for 24 h and then stored in 70% ethanol until further processing. Placentae were homogenized for 1 minute in the presence of lysis buffer comprising 400 mM KCl, 20 mM HEPES pH7.4, 1 mM dithiothreitol, 20% glycerol and 5% (v/v) protease inhibitor cocktail.
Homogenate levels of Interleukin-1β (IL-1β) and tumour necrosis factor α (TNFα) were determined in placental lysates by ELISA (R and D systems) according to manufacturers instructions. Total protein concentrations were determined for each homogenate and IL-1β and TNFα levels were expressed as pg/mg total protein. […] Phosphorylated p65 (phospho-p65) was detected by western immunoblotting using a specific antibody (Santa Cruz) and quantified by densitometric analysis.

The mark [1] stands for this setting: proximal placentae, gestation day 16 mice, 6 hours after intrauterine 250 μg LPS+4 μg 15d-PGJ2, p<0.05.

The structures appear in SMILES notation.

In the case of `CCCCCC=CC=C1C(=O)C=C[C@@H]1CC=CCCCC(=O)O` [15d-PGJ2, 15-deoxy-Δ^12,14prostaglandin J2], the “TNFα levels according to drug treatment” value (placentae, 6 hours after intrauterine LPS+15d-PGJ2 vs LPS+ vehicle) was “not significantly altered”. Besides, under setting [1], the “Levels of IL-1β lower than LPS+ vehicle” value is on record as “approximately 40%” and the “phospho-p65 levels lower than LPS+ vehicle” value is “approximately 35%”.
